For 12 molecules, RP-LC retention time results are on record in the METLIN SMRT retention time set (Domingo-Almenara et al. 2019).

SMILES strings stand for the structures.

A short description of the series: gradient 5% acetonitrile 3 min, to 50% in 2 min, to 85% in 15 min, held 3 min, 100 µL/min. As to conditions: column: Zorbax Extend-C18 2.1 x 50 mm; eluents: water / acetonitrile, 0.1% formic acid. The method, boiled down:
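Retention time was recorded from adduct peaks, which were picked computationally and each inspected manually. Pure standards ran in mixtures of ~100 molecules on HPLC coupled to a quadrupole time-of-flight mass spectrometer, in positive and negative ionization mode, through a Zorbax Extend-C18 column (2.1 × 50 mm, 1.8 μm) at 100 μL/min. Eluents were water and acetonitrile, each with 0.1% formic acid.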
In the case of `Cc1noc(C)c1CC(=O)NCCn1ncc2c(=O)n(Cc3ccc(F)cc3)cnc21`, the RP-LC retention time is 640 s.

In turn, `Cc1ccc(C)c(N2CCN(c3ccnc(SCC(=O)NC4CCCCC4)n3)CC2)c1` registered an RP-LC retention time of 940 s.

In the case of `CCN(C(=O)C1CCCN1S(=O)(=O)c1cc2c(cc1C)NC(=O)CO2)c1ccc(OC)cc1` (configuration not stated), the RP-LC retention time is 782 s. With `CC(C)CCNC(=O)C1CC(=O)N(c2n[nH]c3cccc(F)c23)C1` (configuration not stated), the RP-LC retention time is 699 s. Take `CCCCN1CCN(C(=O)c2nc(N3CCSCC3)c3c(C)cc(C)nc3n2)CC1`: the RP-LC retention time was 581 s. For the molecule `Cc1ccc(-n2nc3c(=O)n(CC(=O)NC4CCCC4)nc(C)c3c2C)cc1`, the RP-LC retention time was found to be 795 s. Molecule `CCCNC(=O)C1CCCN(c2nc3ncn(CC(=O)Nc4ccccc4)c(=O)c3s2)C1` (configuration not stated) displayed an RP-LC retention time of 683 s.

In the case of `COc1ccc(S(=O)(=O)N2C[C@H](F)C[C@@H]2C(=O)N2CCOCC2)cc1Cl`, the RP-LC retention time was determined as 721 s. For `CN(C)[C@@H]1CN(C(=O)c2cc3cc(Cl)ccc3[nH]2)C[C@H]1CO`, the RP-LC retention time is 622 s. For `CC1CCN(c2cc(-n3cnc(C(=O)N4CCC(C(N)=O)CC4)c3)ncn2)CC1`, the RP-LC retention time worked out at 669 s. `Cc1cccc(C)c1NC(=O)Cn1c(C)nc2onc(C)c2c1=O`: the RP-LC retention time amounted to 845 s. The figure for `COc1nccnc1N1CCC(N(C)C(=O)Cc2ccsc2)C1` (configuration not stated) is 719 s.
